Results taken from patent publication US12472168B2, “Ring-fused thiazolino 2-pyridones, methods for preparation thereof and their use in the treatment and/or prevention of a disease involving gram-positive bacteria” (Quretech Bio AB, priority 2017, dated 2025).
In brackets after ≈: the same amount, converted by molar mass. Counter-ions that a name gives are not always drawn. Like-named read-outs stand apart in the source and are kept apart here.

Legend:
MRSA = experiment: Minimum Inhibitory Concentration (MIC) and Minimum Bactericidal Concentration (MBC) assays; type: cell-based, Methicillin-resistant Staphylococcus aureus; details: compound alone, no antibiotic; for MIC: overnight (18 hrs)
Procedure: (§1) MIC was defined by the lowest concentration of the test compound that inhibits visible growth of pathogen of interest. The optical density of the pathogen of interest culture was measured by OD600.
(§2) MBC was determined colony forming units (CFUs) enumeration by serially diluting and plating bacterial cultures on BHI plates.
(§3) Thus, no antibiotic was used in Table 2.

E. faecalis = experiment: MIC and MBC assays; type: cell-based; details: Enterococcus faecalis, compound alone, no antibiotic; for MIC: overnight (18 hrs)
Procedure: as §1, §2, §3

Streptococcus = experiment: MIC and MBC assays; type: cell-based; details: compound alone, no antibiotic
Procedure: as §1, §2, §3

Strep. pyogenes = experiment: MIC and MBC assays; type: cell-based; details: Streptococcus pyogenes, compound alone, no antibiotic
Procedure: (§4) […]. MIC was defined by the lowest concentration of the test compound that inhibits visible growth of pathogen of interest. The optical density of the pathogen of interest culture was measured by OD600.
(§5) […]. MBC was determined colony forming units (CFUs) enumeration by serially diluting and plating bacterial cultures on BHI plates.
(§6) . Thus, no antibiotic was used in Table 2.

Staph. aureus = experiment: MIC and MBC assays; type: cell-based; details: Staphylococcus aureus, compound alone, no antibiotic; for MIC: overnight (18 hrs)
Procedure: as §4, §5, §6

[1] = Staphylococcus aureus, 18 h, read-out: MIC

Compound | MIC (MRSA; [1]) | MBC (MRSA; Staphylococcus aureus) | MIC (E. faecalis) | further results
CCCCCCOc1ccc(-c2sc3c(C4CC4)c(Cc4cccc5ccccc45)cc(=O)n3c2C(=O)O)cc1C [Example 1, 5-Cyclopropyl-8-[4-(hexyloxy)-3-methyl-phenyl]-4-[(1-naphthyl)methyl]-2-oxo-7-thia-1-azabicyclo[4.3.0]nona-3,5,8-triene-9-carboxylic acid] | 20 µM (≈ 11.3 µg/mL) | 25 µM (≈ 14.1 µg/mL) | 67 µM (≈ 37.9 µg/mL) | MBC (E. faecalis): 25 µM (≈ 14.1 µg/mL); MBC (Streptococcus): 9 µM (≈ 5.09 µg/mL)
CCCOc1ccc(-c2sc3c(C4CC4)c(Cc4cccc5ccccc45)cc(=O)n3c2C(=O)O)cc1C [Example 2, 5-Cyclopropyl-4-[(1-naphthyl)methyl]-2-oxo-8-(4-propoxy-3-methyl-phenyl)-7-thia-1-azabicyclo[4.3.0]nona-3,5,8-triene-9-carboxylic acid] | 27 µM (≈ 14.1 µg/mL) | ≥ 50 µM | 250 µM (≈ 131 µg/mL) | MBC (Streptococcus): 5 µM (≈ 2.62 µg/mL)
CCCCCCCOc1ccc(-c2sc3c(C4CC4)c(Cc4cccc5ccccc45)cc(=O)n3c2C(=O)O)cc1C [Example 3, 5-Cyclopropyl-8-[4-(heptyloxy)-3-methyl-phenyl] 4-[(1-naphthyl)methyl]-2-oxo-7-thia-1-azabicyclo[4.3.0]nona-3,5,8-triene-9-carboxylic acid] | 167 µM (≈ 96.8 µg/mL) |  | 183 µM (≈ 106 µg/mL) | MBC (E. faecalis): 100 µM (≈ 58 µg/mL); MBC (Streptococcus): 50 µM (≈ 29 µg/mL)
COc1ccc(-c2sc3c(C4CC4)c(Cc4cccc5ccccc45)cc(=O)n3c2C(=O)O)cc1C [Example 4, 5-Cyclopropyl-8-(4-methoxy-3-methyl-phenyl)-4-[(1-naphthyl)methyl]-2-oxo-7-thia-1-azabicyclo[4.3.0]nona-3,5,8-triene-9-carboxylic acid] | 200 µM (≈ 99.1 µg/mL) |  | 250 µM (≈ 124 µg/mL) | MBC (Streptococcus): 9 µM (≈ 4.46 µg/mL)
CCOc1ccc(-c2sc3c(C4CC4)c(Cc4cccc5ccccc45)cc(=O)n3c2C(=O)O)cc1C [Example 5, 5-Cyclopropyl-8-(4-ethoxy-3-methyl-phenyl)-4-[(1-naphthyl)methyl]-2-oxo-7-thia-1-azabicyclo[4.3.0]nona-3,5,8-triene-9-carboxylic acid] | 150 µM (≈ 76.4 µg/mL) |  | 250 µM (≈ 127 µg/mL) | MBC (Streptococcus): 10 µM (≈ 5.1 µg/mL)
CCCCCOc1ccc(-c2sc3c(C4CC4)c(Cc4cccc5ccccc45)cc(=O)n3c2C(=O)O)cc1C [Example 6, 5-Cyclopropyl-4-[(1-naphthyl)methyl]-2-oxo-8-[4-(pentyloxy)-3-methyl-phenyl]-7-thia-1-azabicyclo[4.3.0]nona-3,5,8-triene-9-carboxylic acid] | 69 µM (≈ 38.1 µg/mL) | 37 µM (≈ 20.4 µg/mL) | 200 µM (≈ 110 µg/mL) | MBC (E. faecalis): 100 µM (≈ 55.2 µg/mL); MBC (Streptococcus): 23 µM (≈ 12.7 µg/mL)
CCCCOc1ccc(-c2sc3c(C4CC4)c(Cc4cccc5ccccc45)cc(=O)n3c2C(=O)O)cc1C [Example 7, 8-(4-Butoxy-3-methyl-phenyl)-5-cyclopropyl-4-[(1-naphthyl)methyl]-2-oxo-7-thia-1-azabicyclo[4.3.0]nona-3,5,8-triene-9-carboxylic acid] | 25 µM (≈ 13.4 µg/mL) | 32 µM (≈ 17.2 µg/mL) | 95 µM (≈ 51.1 µg/mL) | MBC (E. faecalis): 19 µM (≈ 10.2 µg/mL); MBC (Streptococcus): 7 µM (≈ 3.76 µg/mL)
CCCCCCn1cc(-c2sc3c(OC)c(Cc4cccc5ccccc45)cc(=O)n3c2C(=O)O)nn1 [Example 15, 8-(1-Hexyl-1H-1,2,3-triazol-4-yl)-5-methoxy-4-[(1-naphthyl)methyl]-2-oxo-7-thia-1-azabicyclo[4.3.0]nona-3,5,8-triene-9-carboxylic acid] | 100 µM (≈ 51.7 µg/mL) |  |  | 
CCCCCCn1cc(-c2sc3c(OC)c(Cc4cccc5ccccc45)cc(=O)n3c2C(=O)O)nn1 [Example 16, 8-(1-Hexyl-1H-1,2,3-triazol-4-yl)-5-methoxy-4-[(1-naphthyl)methyl]-2-oxo-7-thia-1-azabicyclo[4.3.0]nona-3,5,8-triene-9-carboxylic acid imidazole salt] |  |  |  | MIC (MRSA): 200/nd uM
COCCOc1ccc(-c2sc3c(OC)c(Cc4cccc5ccccc45)cc(=O)n3c2C(=O)O)cc1C [Example 17, 5-Methoxy-8-[4-(2-methoxyethoxy)-3-methyl-phenyl]-4-[(1-naphthyl)methyl]-2-oxo-7-thia-1-azabicyclo[4.3.0]nona-3,5,8-triene-9-carboxylic acid] | > 25 µM |  |  | 
COCCOc1ccc(-c2sc3c(C4CC4)c(Cc4cccc5ccccc45)cc(=O)n3c2C(=O)O)cc1C [Example 18, 5-Cyclopropyl-8-[4-(2-methoxyethoxy)-3-methyl-phenyl]-4-[(1-naphthyl)methyl]-2-oxo-7-thia-1-azabicyclo[4.3.0]nona-3,5,8-triene-9-carboxylic acid] | > 25 µM |  |  | 
C=CCOc1ccc(-c2sc3c(OC)c(Cc4cccc5ccccc45)cc(=O)n3c2C(=O)O)cc1C [Example 21, 8-[4-(Allyloxy)-3-methyl-phenyl]-5-methoxy-4-[(1-naphthyl)methyl]-2-oxo-7-thia-1-azabicyclo[4.3.0]nona-3,5,8-triene-9-carboxylic acid] | 19 µM (≈ 9.72 µg/mL) |  | > 100 µM | 
C#CCCCCOc1ccc(-c2sc3c(OC)c(Cc4cccc5ccccc45)cc(=O)n3c2C(=O)O)cc1C [Example 22, 8-[4-(5-Hexynyloxy)-3-methyl-phenyl]-5-methoxy-4-[(1-naphthyl)methyl]-2-oxo-7-thia-1-azabicyclo[4.3.0]nona-3,5,8-triene-9-carboxylic acid] | 6 µM (≈ 3.31 µg/mL) |  | > 100 µM | 
COc1c(Cc2cccc3ccccc23)cc(=O)n2c(C(=O)O)c(-c3ccc(OCCC=C(C)C)c(C)c3)sc12 [Example 24, 5-Methoxy-8-[4-(4-methyl-3-pentenyloxy)-3-methyl-phenyl]-4-[(1-naphthyl)methyl]-2-oxo-7-thia-1-azabicyclo[4.3.0]nona-3,5,8-triene-9-carboxylic acid] | 45 µM (≈ 24.9 µg/mL) |  | > 100 µM | 
C=CCCCCOc1ccc(-c2sc3c(OC)c(Cc4cccc5ccccc45)cc(=O)n3c2C(=O)O)cc1C [Example 25, 8-[4-(5-Hexenyloxy)-3-methyl-phenyl]-5-methoxy-4-[(1-naphthyl)methyl]-2-oxo-7-thia-1-azabicyclo[4.3.0]nona-3,5,8-triene-9-carboxylic acid] | 45 µM (≈ 24.9 µg/mL) |  | > 100 µM | 
COc1c(Cc2cccc3ccccc23)cc(=O)n2c(C(=O)O)c(-c3ccc(OCC4CC4)c(C)c3)sc12 [Example 26, 8-[4-(Cyclopropylmethoxy)-3-methyl-phenyl]-5-methoxy-4-[(1-naphthyl)methyl]-2-oxo-7-thia-1-azabicyclo[4.3.0]nona-3,5,8-triene-9-carboxylic acid] | 12 µM (≈ 6.31 µg/mL) |  | > 100 µM | 
CCCCCCOc1ccc(-c2sc3c(N)c(Cc4cccc5ccccc45)cc(=O)n3c2C(=O)O)cc1C [Example 27, 5-Amino-8-[4-(hexyloxy)-3-methyl-phenyl]-4-[(1-naphthyl)methyl]-2-oxo-7-thia-1-azabicyclo[4.3.0]nona-3,5,8-triene-9-carboxylic acid] | 25 µM (≈ 13.5 µg/mL) |  |  | 
O=C(O)c1c(-c2ccccc2)sc2c(C3CC3)c(Cc3cccc4ccccc34)cc(=O)n12 [Example 29, 5-Cyclopropyl-4-[(1-naphthyl)methyl]-2-oxo-8-phenyl-7-thia-1-azabicyclo[4.3.0]nona-3,5,8-triene-9-carboxylic acid] | 250 µM (≈ 113 µg/mL) | 200 µM (≈ 90.3 µg/mL) |  | MBC (Strep. pyogenes): 25 µM (≈ 11.3 µg/mL); MIC (Strep. pyogenes; overnight (18 hrs)): 25 µM (≈ 11.3 µg/mL); MBC (Staph. aureus): 200 µM (≈ 90.3 µg/mL); MIC (Staph. aureus): 100 µM (≈ 45.2 µg/mL)
Cc1ccc(-c2sc3c(C4CC4)c(Cc4cccc5ccccc45)cc(=O)n3c2C(=O)O)cc1 [Example 31, 5-Cyclopropyl-4-[(1-naphthyl)methyl]-2-oxo-8-(p-tolyl)-7-thia-1-azabicyclo[4.3.0]nona-3,5,8-triene-9-carboxylic acid] | 50 µM (≈ 23.3 µg/mL) | 100 µM (≈ 46.6 µg/mL) |  | MBC (Strep. pyogenes): 50 µM (≈ 23.3 µg/mL); MBC (Staph. aureus): 100 µM (≈ 46.6 µg/mL); MIC (Staph. aureus): 50 µM (≈ 23.3 µg/mL)
O=C(O)c1c(-c2ccc3[nH]ccc3c2)sc2c(C3CC3)c(Cc3cccc4ccccc34)cc(=O)n12 [Example 32, 5-Cyclopropyl-8-(1H-indol-5-yl)-4-[(1-naphthyl)methyl]-2-oxo-7-thia-1-azabicyclo[4.3.0]nona-3,5,8-triene-9-carboxylic acid] | 200 µM (≈ 98.1 µg/mL) | > 400 µM |  | MBC (Strep. pyogenes): 50 µM (≈ 24.5 µg/mL); MBC (E. faecalis): > 400 µM
O=C(O)c1c(-c2ccc3c(c2)OCCO3)sc2c(C3CC3)c(Cc3cccc4ccccc34)cc(=O)n12 [Example 33, 5-Cyclopropyl-8-(1,4-dioxa-2,3-dihydronaphth-6-yl)-4-[(1-naphthyl)methyl]-2-oxo-7-thia-1-azabicyclo[4.3.0]nona-3,5,8-triene-9-carboxylic acid] |  |  | > 400 µM | MBC (Strep. pyogenes): 20 µM (≈ 10.2 µg/mL); MBC (Staph. aureus): 400 µM (≈ 204 µg/mL)
O=C(O)c1c(-c2ccsc2)sc2c(C3CC3)c(Cc3cccc4ccccc34)cc(=O)n12 [Example 34, 5-Cyclopropyl-4-[(1-naphthyl)methyl]-2-oxo-8-(3-thienyl)-7-thia-1-azabicyclo[4.3.0]nona-3,5,8-triene-9-carboxylic acid] |  | 250 µM (≈ 114 µg/mL) |  | MBC (Strep. pyogenes): 25 µM (≈ 11.4 µg/mL); MBC (Staph. aureus): 400 µM (≈ 183 µg/mL)
O=C(O)c1c(-c2ccco2)sc2c(C3CC3)c(Cc3cccc4ccccc34)cc(=O)n12 [Example 35, 5-Cyclopropyl-8-(2-furyl)-4-[(1-naphthyl)methyl]-2-oxo-7-thia-1-azabicyclo[4.3.0]nona-3,5,8-triene-9-carboxylic acid] |  |  |  | MBC (Strep. pyogenes): 50 µM (≈ 22.1 µg/mL)
O=C(O)c1c(-c2ccoc2)sc2c(C3CC3)c(Cc3cccc4ccccc34)cc(=O)n12 [Example 36, 5-Cyclopropyl-8-(3-furyl)-4-[(1-naphthyl)methyl]-2-oxo-7-thia-1-azabicyclo[4.3.0]nona-3,5,8-triene-9-carboxylic acid] |  |  |  | MBC (Strep. pyogenes): 25 µM (≈ 11 µg/mL)
